Columns and labels:
Test in all cases: relative viability (nuclei count vs DMSO), 5 days (fraction); higher = more cells survive
[1] = compound: Cc1cnc(CNC(=O)c2c(=O)c3ccc(N4CCCN(C)CC4)nc3n3c2sc2ccccc23)cn1 [CX-5461]
Procedure, shortened: (§1)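 Lung cancer cell lines in 1536-well plates were exposed by pinning to five library-drug doses (not always all listed) √10 apart, following an overnight hold at 37 °C. MetaXpress counted Hoechst-stained nuclei from 4× images taken after 5 days without medium change. Viability is the median ratio of treated-well to vehicle-well nuclei across plates. Plates required control CV below 25% and at least one doubling.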

[2] = compound: O=C(Nc1cc(C(F)(F)F)cc(C(F)(F)F)c1)c1cc(Cl)ccc1O [IMD-0354]
Procedure, shortened: as §1

[3] = compound: Cc1cnc(CNC(=O)c2c(=O)c3ccc(N4CCCN(C)CC4)nc3n3c2sc2ccccc23)cn1 [CX-5461] + CC1(C)CCC(c2ccc(Cl)cc2)=C(CN2CCN(c3ccc(C(=O)NS(=O)(=O)c4ccc(N[C@H](CCN5CCOCC5)CSc5ccccc5)c(S(=O)(=O)C(F)(F)F)c4)cc3)CC2)C1 [Navitoclax] (partner 0.5 µM)
Procedure, shortened: (§2)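 Lung cancer cell lines were seeded in 1536-well plates and dosed by pin tool the next day, with either a single drug or a fixed anchor-drug dose combined with five library-drug doses (not always all listed) spaced in √10 steps. Five days later, one step fixed the cells and stained their nuclei (final 0.05% Triton X-100, 1% formaldehyde, 1 ug/ml Hoechst), and nuclei were counted on 4× images. Relative viability is the nuclei count in treated wells divided by the count in vehicle wells, and each value is the median of duplicate plates.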

[4] = compound: Cc1cnc(CNC(=O)c2c(=O)c3ccc(N4CCCN(C)CC4)nc3n3c2sc2ccccc23)cn1 [CX-5461] + COc1cc2c(Oc3ccc(NC(=O)C4(C(=O)Nc5ccc(F)cc5)CC4)cc3F)ccnc2cc1OCCCN1CCOCC1 [Foretinib] (partner 0.25 µM)
Procedure, shortened: as §2

Cell Line	relative viability ([1]; 0.01 µM)	relative viability ([1]; 0.03162 µM)	relative viability ([1]; 0.1 µM)	relative viability ([1]; 0.3162 µM)	relative viability ([1]; 1 µM)	relative viability ([2]; 0.04 µM)	relative viability ([2]; 0.1265 µM)	relative viability ([2]; 0.4 µM)	relative viability ([2]; 1.265 µM)	relative viability ([2]; 4 µM)	relative viability ([3]; first compound 0.01 µM)	relative viability ([3]; first compound 0.03162 µM)	relative viability ([3]; first compound 0.3162 µM)	relative viability ([3]; first compound 1 µM)	relative viability ([4]; first compound 0.01 µM)	relative viability ([4]; first compound 0.03162 µM)	relative viability ([4]; first compound 0.1 µM)	relative viability ([4]; first compound 0.3162 µM)	relative viability ([4]; first compound 1 µM)	relative viability ([3]; first compound 0.1 µM)
NCI-H1650	0.965	0.948	0.406	0.794	0.205	0.96	0.771	0.616	0.252	0.174	1.29	1.02	1.23	0.2	1.35	1.45	0.958	0.928	0.385	–
NCI-H1793	0.989	1.1	0.875	0.997	0.942	1.09	0.759	0.499	0.229	0.213	0.485	0.306	0.485	0.443	0.8	0.734	0.665	–	0.802	0.37
SK-LU-1	1.08	1.07	1.04	1.07	0.736	1.16	0.97	0.581	0.488	0.277	0.792	0.972	0.808	0.23	0.818	0.857	0.736	–	0.326	0.718
LU99A	0.974	0.95	1.23	0.603	0.356	0.726	0.95	0.788	0.326	0.236	0.764	0.938	0.676	0.898	0.818	0.797	0.764	0.495	0.798	0.741
NCI-H1355	1.03	1.06	0.96	0.521	0.671	1.12	0.946	0.716	0.368	0.221	0.882	1.03	1.01	1	1.03	1.01	1.01	0.943	0.95	0.986
HCC-78	1.01	0.879	0.941	0.907	0.902	0.988	0.989	0.579	0.586	0.487	0.984	0.839	0.543	0.769	0.596	0.503	0.573	0.602	0.589	0.724
HCC-15	1.01	1.08	0.978	0.833	0.689	0.949	0.935	0.663	0.16	0.15	0.725	0.773	0.717	0.656	1.11	1.02	0.978	0.895	0.591	0.713
EKVX	1.11	1.05	1.05	0.677	0.915	1	0.972	0.589	0.915	0.358	1.13	1.03	–	0.764	0.971	0.726	0.698	0.821	1.03	0.958
NCI-H2087	1.26	1.16	1.02	1.01	0.717	1.02	1	0.382	0.11	0.152	1.24	1.11	1.12	0.797	1.17	1.43	1.01	1.14	0.787	0.997
NCI-H1395	0.978	0.853	0.816	0.475	0.588	1.15	0.989	0.823	0.324	0.296	1.17	0.993	0.964	0.63	0.959	0.916	0.884	0.988	0.737	1.16
NCI-H1437	1.03	0.97	0.894	1.03	0.877	1.12	0.941	0.626	0.32	0.244	1.09	1.1	1.03	0.928	1.25	1.26	–	1.23	1.18	–
COR-L23	1.03	1.07	0.758	0.973	0.583	0.922	1	0.422	0.13	0.14	0.966	0.981	0.978	0.417	0.997	1.09	0.881	0.774	0.597	0.786
NCI-H838	0.983	1	0.992	0.78	0.806	0.977	0.954	0.565	0.432	0.27	1.22	1.24	1.06	0.897	1.11	1.1	1.16	–	0.931	1.21
A549	0.969	0.96	0.748	0.811	0.193	1.11	0.991	0.496	0.229	0.109	1.05	0.932	0.833	0.035	1.01	0.883	0.948	0.987	0.385	–
A-427	1.06	1.1	1.06	–	0.748	1.26	1.01	0.434	0.153	0.134	1.05	1.06	–	0.979	1.12	1.2	1.13	–	1.04	0.961
LCLC-97TM1	0.881	1.14	0.992	–	0.746	0.97	0.938	0.639	0.384	0.128	0.405	0.523	–	0.467	0.953	1.02	1	–	0.975	0.325

— the supplement of paper PMC10307832
